From patent US8633212B2, “Inhibitors of beta-secretase” (Vitae Pharmaceuticals, Inc., priority 2009, dated 2014)
Read-outs that look alike come from different tables or passages of the source.

Assays:
[1] = target: H4 neuroglioma cell line stably expressing APP with the KM-NL Swedish mutation (H4-APPsw); soluble Amyloid Beta 1-40 (Aβ 1-40) (Homo sapiens (Human), UniProt P56817); assay: BACE cell assay: soluble Aβ 1-40 in culture media of H4-APPsw cells (AlphaLISA/ELISA); assay type: cell-based; conditions: in vitro cell activity; H4-APPsw cells treated overnight, secreted Aβ 1-40 in culture media
Chain of H4 neuroglioma cell line stably expressing APP with the KM-NL Swedish mutation (H4-APPsw); soluble Amyloid Beta 1-40 (Aβ 1-40) (P56817 46-501 limits assumed, change not shown): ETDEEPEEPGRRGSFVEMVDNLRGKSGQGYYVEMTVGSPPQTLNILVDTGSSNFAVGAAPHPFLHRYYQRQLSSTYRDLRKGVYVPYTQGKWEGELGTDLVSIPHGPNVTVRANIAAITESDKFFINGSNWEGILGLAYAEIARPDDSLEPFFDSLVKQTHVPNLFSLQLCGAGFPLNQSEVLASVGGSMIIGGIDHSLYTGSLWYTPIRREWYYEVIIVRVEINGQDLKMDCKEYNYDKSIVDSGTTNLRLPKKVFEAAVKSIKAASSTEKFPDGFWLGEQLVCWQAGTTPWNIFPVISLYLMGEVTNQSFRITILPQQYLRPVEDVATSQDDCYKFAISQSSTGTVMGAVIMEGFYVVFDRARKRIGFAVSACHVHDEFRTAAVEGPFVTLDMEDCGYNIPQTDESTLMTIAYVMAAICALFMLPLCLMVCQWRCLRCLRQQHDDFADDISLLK
Description: H4 neuroglioma cell line that stably expresses Amyloid Precursor Protein (APP) containing the KM-NL Swedish mutation (H4-APPsw) was generated. For the assay, cells are treated overnight in the presence of inhibitor and the culture media are subjected to ELISA analysis of soluble Amyloid Beta 1-40 (Aβ 1-40).
Generation and Maintenance of H4-APPsw Cell Line
H4 neuroglioma cell line was cultured in DMEM with 10% FBS and 1% penicillin/streptomycin (Culture Medium) at 37° C., 5% CO2. […] 24 hrs after transfection, the cells were replaced into three new plates (150 mm) in fresh Culture Medium with 250 ug/mL Zeocin. […] The levels of APPsw expression were analyzed by immunoblotting and the production of Aβ 1-40 was detected by ELISA of culture supernatants. The selected clones are maintained in Culture Medium with 250 μg/mL Zeocin and routinely split in 3-4 days to maintain 20-80% confluence.
Final Assay Conditions (96-Well Plate)
Split H4-APPsw cells in Culture Medium and culture overnight such that cells will be ˜80% confluent next morning.
Create Compound Dilution Plate.
After determining the desired final concentration of compound to be tested, create a 500× dilution plate. Add DMSO, but not inhibitor, to each well of Column 1. […] Add compounds of interest at 500× desired final concentration to wells A3-A10. […] Dilute contents of Row A 1:3 in Row B, then continue through Rows C-H.
Add 4 μL 5 mM control compound to Media Plate wells A1-D1 for determination of full inhibition.
With a multichannel pipettor, mix each well of Media Plate several times to insure homogeneity. […] Next, place Medium Plate and Cell Plate in the incubator.
Trypsinize and count H4-APPsw cells. Dilute cells 6×10^5 cells/mL in Culture Medium and remove Cell Plate from incubator. Vortex cells to homogeneity, then using a multichannel repeating pipettor, add 100 μL cell suspension to Cell Plate, adding cells from Row H to Row A. Place Cell Plate in incubator.
Change media in Cell Plate.
After 5 h, check Cell Plate by microscope to insure cells are attached. In culture hood, remove media from Cell Plate using multichannel repeating pipettor. Add 100 μl Culture Medium to each well. Remove Media Plate from incubator and mix with pipettor as previous. Add 100 μl from each well of Media Plate to corresponding well in Cell Plate. Place Cell Plate in incubator overnight.
Perform ELISA to determine levels of secreted Aβ 1-40.
After 16 h incubation, spin Cell Plate for 8 min at 1200 rpm. The primary reading of Aβ 1-40 levels is done using PerkinElmer AlphaLISA technology. Follow the manufacturer's protocol for performing AlphaLISA in a white ½ area Optiwell plate using Row 12 for peptide standard (1:2 dilutions, starting at 15 ng/ml). Data are acquired using PerkinElmer Fusion-Alpha FP-HT, Alpha protocol (Count Time 0.6s, Count Time Ratio 30%:70%).
Export data from Fusion using Columnar Report format into a separate file for each plate. Upload data into Activity Base using RIA-DOSE-RESPONSE protocol (Version 1). Data from at least eight doses were fitted to a four parameter logistical model using XLfit software to determine potency.

[2] = target: truncated human beta-secretase (residues 1-458, His6-tagged at the C-terminus) (Homo sapiens (Human), UniProt P56817); assay: BACE enzyme assay (fluorescence quench assay, Example 434A); assay type: biochemical; conditions: read-out: IC50
Chain of truncated human beta-secretase (residues 1-458, His6-tagged at the C-terminus) (P56817 22-458): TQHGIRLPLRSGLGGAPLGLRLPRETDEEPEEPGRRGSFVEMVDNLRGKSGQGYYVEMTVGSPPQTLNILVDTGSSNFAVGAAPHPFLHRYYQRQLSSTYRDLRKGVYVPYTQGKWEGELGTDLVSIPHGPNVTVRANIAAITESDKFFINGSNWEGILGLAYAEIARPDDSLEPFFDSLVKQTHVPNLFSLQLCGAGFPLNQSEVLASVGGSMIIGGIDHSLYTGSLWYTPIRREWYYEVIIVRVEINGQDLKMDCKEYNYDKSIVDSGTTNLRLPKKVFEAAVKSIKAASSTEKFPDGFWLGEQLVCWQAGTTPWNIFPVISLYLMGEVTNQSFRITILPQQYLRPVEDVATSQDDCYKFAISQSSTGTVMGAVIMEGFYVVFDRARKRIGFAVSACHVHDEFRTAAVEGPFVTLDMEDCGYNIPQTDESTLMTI

[3] = footnote a: protocols described in Example 434A

| Structure (SMILES) | IC50 [1] | IC50 [2, 3] | IC50 [2] |
| --- | --- | --- | --- |
| CN1C(=O)C2(N=C1N)c1cc(Br)ccc1CC21CCc2ccccc2CC1 (stereo not shown) [Compound 56] | < 5 µM | – | – |
| CO[C@H]1CC[C@]2(CC1)Cc1ccc(-c3cccc(C#N)c3)cc1C21CC(=O)N(C)C(N)=N1 (stereo partly drawn) [Compound 58, 3-(2″-amino-1′″-methyl-6″-oxo-5″,6″-dihydro-1″H-spiro[spiro[2,3-dihydro-indene-2,1′-(trans-4-methoxycyclohexane)]-1,4′-pyrimidine]-6-yl)benzonitrile] | < 0.1 µM | – | 0.97 µM |
| CCO[C@H]1CC[C@]2(CC1)Cc1ccc(-c3cccc(C#N)c3)cc1C21N=C(N)N(C)O1 (stereo partly shown) [Compound 28] | < 0.5 µM | – | 0.0417 µM |
| COC1CCC2(CC1)Cc1ccc(-c3cc(C)cc(C)c3)cc1C21N=C(N)N(C)O1 (stereo not shown) [Compound 19] | < 0.5 µM | 0.0146 µM | – |
| COC1CCC2(CC1)Cc1ccc(-c3cccnc3)cc1C21CC(=O)N(C)C(N)=N1 (stereo not drawn) [Compound 59, 2″-amino-1′″-methyl-6-(pyridin-3-yl)-1″H-spiro[spiro[2,3-dihydro-indene-2,1′-(trans-4-methoxycyclohexane)]-1,4′-pyrimidin]-6″(5″H)-one] | < 0.5 µM | – | 1.55 µM |
| CN1OC2(N=C1N)c1ccccc1CC21CCc2ccccc2CC1 (stereo not shown) [Compound 35] | < 1 µM | – | – |
| CN1OC2(N=C1N)c1cc(-c3cccc(C(F)(F)F)c3)ccc1CC21CCc2ccccc2CC1 (stereo not shown) [Compound 39] | < 10 µM | – | 0.158 µM |
| CN1OC2(N=C1N)c1cc(Cl)ccc1CC21CCc2ccccc2CC1 (stereo not shown) [Compound 30] | < 5 µM | 0.0616 µM | – |
| CN1OC2(N=C1N)c1cc(Br)ccc1CC21CCc2ccccc2CC1 (stereo not shown) [Compound 31] | < 5 µM | – | 0.064 µM |
| CN1OC2(N=C1N)c1cc(-c3cccc(C#N)c3)ccc1CC21CCc2cc(F)ccc2C1 (stereo not shown) [Compound 43] | < 5 µM | – | 0.178 µM |
| CN1OC2(N=C1N)c1cc(-c3cccc(C#N)c3)ccc1CC21CCc2c(F)cccc2C1 (stereo not shown) [Compound 54] | < 5 µM | 0.618 µM | – |
| COC1CCC2(CC1)Cc1ccc(-c3cc(F)cc(Cl)c3)cc1C21CC(=O)N(C)C(N)=N1 (stereo not drawn) [Compound 42, 2″-amino-1′″-methyl-6-(3-chloro-5-fluorophenyl)-1″H-spiro[spiro[2,3-dihydro-indene-2,1′-(trans-4-methoxycyclohexane)]-1,4′-pyrimidin]-6″(5″H)-one] | < 0.1 µM | – | 0.173 µM |

The next lines start with results.

| IC50 [1] | IC50 [2, 3] | Structure (SMILES) | IC50 [2] |
| --- | --- | --- | --- |
| < 0.5 µM | 0.0187 µM | COC1CCC2(CC1)Cc1ccc(-c3cccc(C(F)(F)F)c3)cc1C21N=C(N)N(C)O1 (stereo not shown) [Compound 20] | – |
| < 50 µM | – | CN1OC2(N=C1N)c1cc(-c3cccc(C#N)c3)ccc1CC21C=CC(c2ccccc2)C1 (stereo not shown) [Compound 53] | – |
| < 5 µM | – | CN1C(=O)C2(N=C1N)c1cc(-c3cc(F)cc(Cl)c3)ccc1CC21CCc2ccccc2CC1 (stereo not shown) [Compound 26] | – |
| < 0.1 µM | 0.0045 µM | COC1CCC2(CC1)Cc1ccc(C#CC3CC3)cc1C21N=C(N)N(C)O1 (stereo not shown) [Compound 3] | – |
| < 5 µM | 0.161 µM | CC1=C(C)CC2(CC1)Cc1ccc(-c3cccc(C#N)c3)cc1C21N=C(N)N(C)O1 (stereo not shown) [Compound 41] | – |
| < 1 µM | 0.443 µM | CN1OC2(N=C1N)c1cc(-c3cccc(C#N)c3)ccc1CC21CCCC1 (stereo not shown) [Compound 50] | – |
| < 1 µM | 0.0933 µM | CN1OC2(N=C1N)c1cc(-c3cccc(C#N)c3)ccc1CC21CC=C(F)CC1 (stereo not shown) [Compound 34] | – |
| < 5 µM | 0.189 µM | CN1OC2(N=C1N)c1cc(-c3cccc(C#N)c3)ccc1CC21CCC(F)(F)CC1 (stereo not shown) [Compound 44] | – |
| < 5 µM | 0.936 µM | CO[C@H]1CC2(Cc3ccc(-c4cccc(C#N)c4)cc3C23N=C(N)N(C)O3)C[C@H]1OC (stereo partly shown) [Compound 57] | – |
| < 0.5 µM | – | CN1C(=O)C2(N=C1N)c1cc(-c3cccc(C#N)c3)ccc1CC21CCc2ccccc2CC1 (stereo not shown) [Compound 29] | – |
| < 0.1 µM | 0.0262 µM | COC1CCC2(CC1)Cc1ccc(-c3cccc(C#N)c3)cc1C21N=C(N)N(C)O1 (stereo not shown) [Compound 25] | – |
| < 5 µM | 0.16 µM | CN1OC2(N=C1N)c1cc(-c3cccc(C#N)c3)ccc1CC21Cc2ccccc2C1 (stereo not shown) [Compound 40] | – |
| < 10 µM | 0.293 µM | CN1OC2(N=C1N)c1cc(-c3cccc(C#N)c3)ccc1CC21CCCc2ccccc2C1 (stereo not shown) [Compound 46] | – |
| < 10 µM | 0.295 µM | CN1OC2(N=C1N)c1cc(-c3cccc(C#N)c3)ccc1CC21C=CC(c2ccccc2)C1 (stereo not shown) [Compound 47] | – |
| < 0.1 µM | 0.0026 µM | COC1CCC2(CC1)Cc1ccc(-c3cc(F)cc(Cl)c3)cc1C21N=C(N)N(C)O1 (stereo not shown) [Compound 1] | – |
